Measurements: patent US20260356869A1, “TRANSITION METAL COMPLEXES FOR MRI APPLICATIONS AND METHODS OF USE” (Yale University, priority 2022, published 2026)
Read-outs that look alike come from different tables or passages of the source.

How the values were obtained:
[1] = literature value, cited from earlier work
[2] = 23Na-NMR sodium sensing (shiftability and broadening); format: physicochemical; settings: 150 mM NaCl; for Shiftability (Sc): negative = downfield, positive = upfield from unshifted sodium signal
Description: (§1) The synthesized complexes are characterized for water proton relaxivities with different concentrations of complexes, as well as their proton sensing (with BIRDS and CEST) and sodium sensing (with ^23Na-MRSI) properties on a Bruker AVANCE III HD 500 vertical-bore spectrometer (Bruker, Billerica, MA, USA) interfaced with Bruker TopSpin v3.2 software.
Sodium-23 (^23Na), which has 100% natural abundance, is also visible by magnetic resonance (I=3/2) and provides the second-strongest signal among biological ions after proton. […] Sodium (Na^+) concentration is normally low intracellularly (~10 mM) and high in blood and extracellular spaces (~150 mM), producing a strong transmembrane Nat gradient (ΔNa^+mem≈140 mM) and a weak transendothelial Na^+ gradient (ΔNa^+end≈0 mM). Distributions of sodium ion (Na^+) across biological membranes are tightly regulated, and thus variations of Nat across compartments often imply pathological states.
In vitro experiments are performed using concentric NMR tubes (spherical and cylindrical; Wilmad-LabGlass, Vineland, NJ, USA). One compartment (inner) contained 150 mM NaCl and the other (outer) contained the same but with varying amounts of transition metal complexes and 10% v/v ^2H2O to lock the spectrometer frequency using the ^2H2O signal. Each solution is pH-adjusted using HCl or KOH to give five different pH values. ^23Na-NMR spectra are collected on the same Bruker system as for ^1H NMR. […] Spectra are analyzed applying 10 Hz line broadening and manual zeroth- and first-order phasing. The chemical shift and line width of the shifted peak are measured using the “peakw” function on TopSpin.

[3] = BIRDS characterization: pH and temperature sensitivity of non-exchangeable (and -NH) proton chemical shifts by 1H NMR; format: physicochemical; settings: for T sensitivity, -NH proton: -NH proton (exchangeable), 298 K to 318 K
Experimental: as §1
The chemical shifts of proton resonances are measured relative to the water resonance (4.7 ppm). Temperature and pH sensitive non-exchangeable proton resonances in each complex are chosen for BIRDS detection. The temperature and pH dependences of proton chemical shifts are fitted to second-order polynomial equations:
δ=a+b pH+cT+dpH^2+eT^2+f pHT Eq. 1
Where, the coefficients a-f are obtained from the fit. The relaxation times (T1 and T2) of these resonances are measured at 35 °C using typical inversion-recovery and spin-echo methods, respectively.

[4] = reported value, cited from earlier work; for Shiftability (Sc): negative = downfield, positive = upfield from unshifted sodium signal
[5] = 10 mM, pH 6.2-8.0, 298 K to 318 K, 11.7 T
[6] = proton B, 10 mM, pH 6.2-8.0, 298 K to 318 K, 11.7 T
[7] = proton A (@56), comparator thulium complex
[8] = proton B (@23), comparator thulium complex
[9] = proton C (@-20), comparator thulium complex

O=C(CN1CCN(CC(=O)NCP(=O)(O)O)CCN(CC(=O)NCP(=O)(O)O)CCN(CC(=O)NCP(=O)(O)O)CC1)NCP(=O)(O)O.[Tm+3] [TmDOTA-4AMP^5-]
T sensitivity, non-exchangeable proton H1 ([1]; proton H1): 0.54 ppm/° C.
pH sensitivity, non-exchangeable proton H1 ([1]; proton H1): 1.8 ppm/pH unit
T sensitivity, non-exchangeable proton H2 [1]: -0.24 ppm/° C.
pH sensitivity, non-exchangeable proton H2 [1]: -0.63 ppm/pH unit
T sensitivity, non-exchangeable proton H3 [1]: -0.188 ppm/° C.
pH sensitivity, non-exchangeable proton H3 [1]: -0.25 ppm/pH unit
T sensitivity, non-exchangeable proton H4 ([1]; proton H4): -1.49 ppm/° C.
pH sensitivity, non-exchangeable proton H4 ([1]; proton H4): -3.9 ppm/pH unit
T sensitivity, non-exchangeable proton H6 [1]: 0.45 ppm/° C.
pH sensitivity, non-exchangeable proton H6 [1]: 1.2 ppm/pH unit
T sensitivity, non-exchangeable proton H8 ([1]; proton H8): 0.170 ppm/° C.
pH sensitivity, non-exchangeable proton H8 ([1]; proton H8): -4.0 ppm/pH unit

O=P(O)(O)CN1CCN(CP(=O)(O)O)CCN(CP(=O)(O)O)CCN(CP(=O)(O)O)CC1.[Fe+2] [FeDOTP^6-]
Broadening (βc) [2]: 0.023 ppm/mM
Shiftability (Sc) [2]: +0.688 ppm/mM
T sensitivity, non-exchangeable proton A [3, 5]: 0.345 ppm/° C.
T sensitivity, non-exchangeable proton B [3, 6]: 0.130 ppm/° C.
T sensitivity, non-exchangeable proton C [3, 5]: 0.045 ppm/° C.

O=C(CN1CCN(CC(=O)NCP(=O)(O)O)CCN(CC(=O)NCP(=O)(O)O)CCN(CC(=O)NCP(=O)(O)O)CC1)NCP(=O)(O)O.[Co+2] [CoDOTA-4AMP^6-]
Broadening (βc) [2]: 0.022 ppm/mM
Shiftability (Sc) [2]: -0.172 ppm/mM
T sensitivity, -NH proton ([3]; 11.7 T): 0.161 ppm/° C.
T sensitivity, non-exchangeable proton A [3, 5]: 0.576 ppm/° C.

O=P(O)(O)CN1CCN(CP(=O)(O)O)CCN(CP(=O)(O)O)CCN(CP(=O)(O)O)CC1.[Gd+3] [GdDOTP^5-]
Broadening (βc) [4]: 0.036 ppm/mM
Shiftability (Sc) [4]: -0.040 ppm/mM

O=P(O)(O)CN1CCN(CP(=O)(O)O)CCN(CP(=O)(O)O)CCN(CP(=O)(O)O)CC1.[Co+2] [CODOTP^6-]
Broadening (βc) [2]: 0.016 ppm/mM
Shiftability (Sc) [2]: -0.207 ppm/mM
T sensitivity, non-exchangeable proton A [3, 5]: 0.434 ppm/° C.
pH sensitivity, non-exchangeable proton A [3, 5]: 6.0 ppm/pH unit
T sensitivity, non-exchangeable proton B [3, 6]: 0.234 ppm/° C.
pH sensitivity, non-exchangeable proton B [3, 6]: 1.42 ppm/pH unit
T sensitivity, non-exchangeable proton C [3, 5]: 0.186 ppm/° C.

O=P(O)(O)CN1CCN(CP(=O)(O)O)CCN(CP(=O)(O)O)CC1.[Gd+3] [GdNOTP^3-]
Broadening (βc) [4]: 0.0117 ppm/mM
Shiftability (Sc) [4]: -0.0435 ppm/mM

O=C(CN1CCN(CC(=O)NCP(=O)(O)O)CCN(CC(=O)NCP(=O)(O)O)CCN(CC(=O)NCP(=O)(O)O)CC1)NCP(=O)(O)O.[Fe+2] [FeDOTA-4AMP^6-]
Broadening (βc) [2]: 0.020 ppm/mM
Shiftability (Sc) [2]: -0.477 ppm/mM
T sensitivity, -NH proton ([3]; 11.7 T): 0.158 ppm/° C.
T sensitivity, non-exchangeable proton A [3, 5]: 0.413 ppm/° C.
T sensitivity, non-exchangeable proton E ([3]; proton E, 10 mM, pH 6.2-8.0, 298 K to 318 K, 11.7 T): -0.306 ppm/° C.

O=P(O)(O)CN1CCN(CP(=O)(O)O)CCN(CP(=O)(O)O)CC1.[Co+2] [CONOTP^4-]
Broadening (βc) [2]: 0.013 ppm/mM
Shiftability (Sc) [2]: +0.140 ppm/mM
T sensitivity, non-exchangeable proton A [3, 5]: 0.948 ppm/° C.
pH sensitivity, non-exchangeable proton A [3, 5]: 6.20 ppm/pH unit

O=P(O)(O)CN1CCN(CP(=O)(O)O)CCN(CP(=O)(O)O)CCN(CP(=O)(O)O)CC1.[Tm+3] [TmDOTP^5-]
T sensitivity, non-exchangeable proton H2 [1]: -0.6 ppm/° C.
pH sensitivity, non-exchangeable proton H2 [1]: 4.2 ppm/pH unit
T sensitivity, non-exchangeable proton H3 [1]: -0.5 ppm/° C.
pH sensitivity, non-exchangeable proton H3 [1]: 3.6 ppm/pH unit
T sensitivity, non-exchangeable proton H6 [1]: 1.1 ppm/° C.
pH sensitivity, non-exchangeable proton H6 [1]: -3.9 ppm/pH unit
Broadening (βc) [4]: 0.042 ppm/mM
Shiftability (Sc) [4]: -2.03 ppm/mM

O=P(O)(O)CN1CCN(CP(=O)(O)O)CCN(CP(=O)(O)O)CC1.[Tm+3] [TmNOTP^3-]
T sensitivity, non-exchangeable proton A (@56) [3, 7]: 0.351 ppm/° C.
pH sensitivity, non-exchangeable proton A (@56) [3, 7]: -2.58 ppm/pH unit
T sensitivity, non-exchangeable proton B (@23) [3, 8]: 0.140 ppm/° C.
pH sensitivity, non-exchangeable proton B (@23) [3, 8]: -0.56 ppm/pH unit
T sensitivity, non-exchangeable proton C (@-20) [3, 9]: -0.250 ppm/° C.
pH sensitivity, non-exchangeable proton C (@-20) [3, 9]: 1.88 ppm/pH unit
Broadening (βc) [4]: 0.018 ppm/mM
Shiftability (Sc) [4]: -0.568 ppm/mM

O=P(O)(O)CN1CCN(CP(=O)(O)O)CCN(CP(=O)(O)O)CC1.[Fe+2] [FeNOTP^4-]
Broadening (βc) [2]: 0.015 ppm/mM
Shiftability (Sc) [2]: +0.318 ppm/mM
T sensitivity, non-exchangeable proton A [3, 5]: 0.240 ppm/° C.
T sensitivity, non-exchangeable proton B [3, 6]: 0.149 ppm/° C.
